Legend:
[1] = test system: Animals; assay: Chemotherapy-induced anemia (CBC: red blood cells, hematocrit, hemoglobin); details: for anemia: level of red blood cell count, hemoglobin and hematocrit, chemotherapy agent alone: 20 mg/kg TMZ, 100 mg/kg 5-FU, 40 mg/kg oxaliplatin, two to four weeks; for hemoglobin level, chemotherapeutic agent alone: 100 mg/kg 5-FU or 40 mg/kg oxaliplatin
Method: Animals were treated with three different chemotherapy agents inducing anemia (20 mg/kg TMZ, 100 mg/kg 5-FU, 40 mg/kg oxaliplatin). After two to four weeks of treatments blood was collected via retro-orbital puncture from the different experimental groups. Blood samples were processed for CBC.

[2] = test system: neural stem cells; assay: BrdU immunoreactivity of neural stem cells in sub-ventricular area and hippocampus; type: in vivo, Mice
Method: A] Periventricular cells from the brains of animals treated with the indicated treatments were isolated and cultured in the neurosphere assay at clonal density to quantify clonogenic frequency. […] B-C] […] D-E] NSC activity was also measured in the hippocampus, region of the brain involved in cognition.
A cohort of animals received three injections of BrdU [50 mg/kg] over a 72-hour time period before to be euthanized. Brains were removed, fixed, sectioned and BrdU antibodies used to identify cells that were in S-phase during the 72 hour injection period.

[3] = test system: neural stem cells; assay: Neurosphere assay of periventricular cells from treated animals; type: in vivo, Mice; details: TMZ [20 mg/kg] or 5-FU [100 mg/kg] for two weeks
Method: A] Periventricular cells from the brains of animals treated with the indicated treatments were isolated and cultured in the neurosphere assay at clonal density to quantify clonogenic frequency. […] Chemotherapies induced a decline of neural stem cell activity seen by decreased neurosphere formation, which can be improved when combined with our treatment, **, ***, p<0.01, p<0.001, one-way ANOVA. B-C] […] D-E] NSC activity was also measured in the hippocampus, region of the brain involved in cognition.
Mice were fed with control diet or MCT/LC/Curcumin/EGCG/SFN diet. Each dietary group was treated with TMZ [20 mg/kg] or 5-FU [100 mg/kg] for two weeks, after which point brains were harvested and the cells from the periventricular region were cultured at clonal density in the neurosphere assay during one passage (7-14 days) to quantify the sphere forming frequency indicating neural stem cells occurrence in the brains of animals treated with the different treatments.

[4] = test system: Animals; assay: Chemotherapy-induced leukopenia (CBC: white blood cells, neutrophils); type: in vivo; details: 20 mg/kg TMZ, 100 mg/kg 5-FU; two weeks
Method: Animals were treated with different chemotherapy agents inducing leukopenia (20 mg/kg TMZ, 100 mg/kg 5-FU). […] Blood samples were processed for CBC.

[5] = test system: Mice; assay: Paclitaxel-induced nephrotoxicity and hepatotoxicity (kidney and liver mass); type: in vivo; details: Paclitaxel [5 mg/kg], 3-4 weeks of treatment
Method: Targeted toxicity of the chemotherapeutic agent Paclitaxel was assessed after 3-4 weeks of treatment via measuring the mass of the kidneys.
Toxicity was assessed after 3-4 weeks of treatment via comparing the mass of the liver.
After four weeks of treatments, the organs were harvested and their mass determined.

[6] = test system: patients with type 2 diabetes; details: provided by oral intake of 68 grams of broccoli sprouts; cited from earlier work
[7] = test system: neonatal rat; details: cited from earlier work
[8] = in vivo; cited from earlier work
[9] = test system: healthy subjects; details: 5000 to 12,000 mg/day; cited from earlier work
[10] = test system: rats, guinea pigs and monkeys; details: cited from earlier work
[11] = test system: Mice; assay: Von Frey test of mechanosensitivity (chemotherapy-induced peripheral neuropathy); details: Von Frey filament 4 g; cumulative 25 mg/kg Paclitaxel, 40 mg/kg Oxaliplatin
Method: Mechanosensitivity was compared between the different experimental groups. Von Frey test filament (4 g) was pressed to the plantar surface of the hindpaw until the filament just bent.
Animals were also tested for neuropathic pain using the Von Frey Test where the sensitivity of the animals to mechanical stimulus is measured. Similar to the cold allodynia assay, the animals were tested after cumulative doses of 25 mg/kg paclitaxel and 40 mg/kg oxaliplatin. Von Frey test filament (4 g) was pressed to the plantar surface of the hindpaw until the filament just bent. The percent positive response (i.e. paw withdrawal) was recorded.

[12] = test system: dogs; details: 500 mg/kg/day, divided dosage, pre-fed dogs, 13 weeks; cited from earlier work
[13] = test system: rodents; details: oral doses as high as 500 mg/kg in rodents; cited from earlier work
[14] = neonatal rat hypoxic-ischemic injury

With `O=c1[nH]cc(F)c(=O)[nH]1` [5-FU, Fluorouracil] the “anemia: level of red blood cell count, hemoglobin and hematocrit, chemotherapy agent alone” value [1] was “induced anemia”, the “hemoglobin level, chemotherapeutic agent alone” value [1] was “significantly diminished” and the “NSC activity (BrdU immunoreactivity) in the sub-ventricular area (SVZ), single treatment versus control” value ([2]; diet alone or 5-FU alone) was “reduced level of BrdU+ve cells”. For the same molecule, the “number of BrdU-immunoreactive proliferating neural stem cells relative to controls” value ([2]; subventricular area and hippocampus, three BrdU injections [50 mg/kg] over 72 hours) was “less number of proliferating neural stem cells”, the “sphere forming cells, chemotherapy agent alone” value [3] was “decreased number of sphere forming cells” and the “leukopenia: level of white blood cell and neutrophil count, chemotherapy agent alone” value [4] was “induced leukopenia”.

In the case of `CC(=O)O[C@H]1C(=O)[C@@]2(C)[C@H]([C@H](OC(=O)c3ccccc3)[C@]3(O)C[C@H](OC(=O)[C@H](O)[C@@H](NC(=O)c4ccccc4)c4ccccc4)C(C)=C1C3(C)C)[C@]1(OC(C)=O)CO[C@@H]1C[C@@H]2O` [Paclitaxel], the “mass of the kidneys, drug alone” value [5] was “significant diminution of the kidney weight” and the “mass of the liver, drug alone” value [5] was “significant liver enlargement”.

For `C[S+]([O-])CCCCN=C=S` (centres unmarked) [SFN, sulforaphane], the safe non-toxic dose [6] is listed as 100 mg, the infarct ratio ([7]; 24 hours after hypoxic ischemia) is listed as “reduced infarct ratio” and the “expression of the Nrf2 antioxidative transcription factor in the brain” value [7, 14] is listed as “increased the expression of the Nrf2”. The “number of apoptotic cells” value [7, 14] was “significantly decreased the number of apoptotic cells”, the elimination [8] was “long terminal elimination phase” and the “time to peak plasma levels” value [8] was no more than 2 h.

In the case of `Cn1nnc2c(C(N)=O)ncn2c1=O` [TMZ, Temozolomide], the “sphere forming cells, chemotherapy agent alone” value [3] was “decreased number of sphere forming cells” and the “leukopenia: level of white blood cell and neutrophil count, chemotherapy agent alone” value [4] was “induced leukopenia”.

For `COc1cc(/C=C/C(=O)CC(=O)/C=C/c2ccc(O)c(OC)c2)ccc1O` [curcumin, Curcumin], the “adverse side effects in dose escalation” value [9] is given as “no significant adverse side effects” and the “toxicity at high doses in preclinical models” value [10] is given as “safe”.

In the case of `O=C1[O][Pt]2([NH][C@@H]3CCCC[C@H]3[NH]2)[O]C1=O` [oxaliplatin, Oxaliplatin], the “anemia: level of red blood cell count, hemoglobin and hematocrit, chemotherapy agent alone” value [1] was “induced anemia”, the “hemoglobin level, chemotherapeutic agent alone” value [1] was “significantly diminished” and the “mechanosensitivity (percent positive response, paw withdrawal), chemotherapy alone, FIG. 12” value [11] was “increased”.

For Epigallocatechin-3-gallate [EGCG], the “adverse events or toxicity” value [12] is given as “no adverse events or toxicity” and the “genotoxic or short term toxicity” value [13] is given as “no genotoxic or short term toxicity”.

Source: patent US11020372B2, “Dietary and natural product management of negative side effects of cancer treatment” (UNIVERSITY OF FLORIDA RESEARCH FOUNDATION, INC., priority 2015, dated 2021)
